Assay results taken from patent US5223526A, “Pyrazole carboxanilide fungicides and use” (Monsanto Company, priority 1992, dated 1993).

How the values were obtained:
Botrytis cinerea [1] = assay: Vine grey mold (grape berries); assay type: in vivo; conditions: average of six berries, 7-10 days; for pest or weed control at 50 ppm: grape berries treated with 50 ppm, read-out: % DISEASE CONTROL 50 ppm; for pest or weed control at 200 ppm: grape berries treated with 200 ppm, read-out: % DISEASE CONTROL 200 ppm
Protocol: Grape berries, which have been washed and surfaced sterilized in 70% ethanol for one minute, are, except for the negative controls, treated with 0.2 mL of a 2:3 acetone/water formulation (containing 0.05% Tween® 20) of 200 or 50 ppm of the test compounds and placed one per well in 12-well plates. Six berries per treatment level are used. Twenty-four hours later each berry is inoculated with Botrytis cinerea conidia, 0.2 mL of 10^6 spores/mL suspension. The plates are incubated at 20° C. with a 12 hours photoperiod for 7-10 days and the percent surface area infected with the disease is determined for each replicate using the values of 0, 1, 2, 5, 7, 10, 15, 20, 25, 30, 35, 40, 45, 50, 55, 60, 65, 70, 75, 80, 85, 90, 95, and 100%. Treatment means are calculated and percent disease control is determined by the formula [(control mean - treatment mean)/control means]×100.
Some of the compounds have been tested more than once and the results shown are the average of the number of tests reported.

succinate dehydrogenase = molecular target: T1, succinate dehydrogenase (Botrytis cinerea, UniProt A0A384J5E4+A0A384J8V8+A0A384JHJ5); assay: Enzyme inhibition: succinate dehydrogenase activity in Botrytis cinerea mitochondria (DCPIP reduction); assay type: biochemical; conditions: concentration required to inhibit the rate of DCPIP reduction by 50%; Botrytis cinerea isolate Nick mitochondria; read-out: I50 (μM conc.)
T1 construct: succinate-DCPIP reductase assay with KCN
T1 sequence (A0A384J5E4 1-300): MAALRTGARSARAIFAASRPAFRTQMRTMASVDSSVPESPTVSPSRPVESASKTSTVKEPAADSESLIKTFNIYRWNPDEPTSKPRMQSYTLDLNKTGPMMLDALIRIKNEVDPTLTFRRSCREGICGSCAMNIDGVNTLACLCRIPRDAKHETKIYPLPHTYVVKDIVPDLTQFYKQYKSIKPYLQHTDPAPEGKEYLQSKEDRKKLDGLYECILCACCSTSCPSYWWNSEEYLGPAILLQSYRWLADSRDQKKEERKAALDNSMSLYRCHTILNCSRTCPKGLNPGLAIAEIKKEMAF
T1 sequence (A0A384J8V8 1-189): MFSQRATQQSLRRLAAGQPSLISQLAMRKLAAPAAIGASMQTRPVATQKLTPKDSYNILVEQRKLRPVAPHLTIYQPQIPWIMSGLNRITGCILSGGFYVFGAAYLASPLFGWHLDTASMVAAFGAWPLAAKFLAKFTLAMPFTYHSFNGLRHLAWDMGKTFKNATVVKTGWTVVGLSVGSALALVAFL
T1 sequence (A0A384JHJ5 1-192): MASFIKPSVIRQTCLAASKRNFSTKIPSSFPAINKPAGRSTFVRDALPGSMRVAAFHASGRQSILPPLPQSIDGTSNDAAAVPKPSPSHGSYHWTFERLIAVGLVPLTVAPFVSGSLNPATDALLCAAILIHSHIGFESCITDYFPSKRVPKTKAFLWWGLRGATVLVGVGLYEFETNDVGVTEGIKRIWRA
T1 sequence (A0A384K456 1-647 partner): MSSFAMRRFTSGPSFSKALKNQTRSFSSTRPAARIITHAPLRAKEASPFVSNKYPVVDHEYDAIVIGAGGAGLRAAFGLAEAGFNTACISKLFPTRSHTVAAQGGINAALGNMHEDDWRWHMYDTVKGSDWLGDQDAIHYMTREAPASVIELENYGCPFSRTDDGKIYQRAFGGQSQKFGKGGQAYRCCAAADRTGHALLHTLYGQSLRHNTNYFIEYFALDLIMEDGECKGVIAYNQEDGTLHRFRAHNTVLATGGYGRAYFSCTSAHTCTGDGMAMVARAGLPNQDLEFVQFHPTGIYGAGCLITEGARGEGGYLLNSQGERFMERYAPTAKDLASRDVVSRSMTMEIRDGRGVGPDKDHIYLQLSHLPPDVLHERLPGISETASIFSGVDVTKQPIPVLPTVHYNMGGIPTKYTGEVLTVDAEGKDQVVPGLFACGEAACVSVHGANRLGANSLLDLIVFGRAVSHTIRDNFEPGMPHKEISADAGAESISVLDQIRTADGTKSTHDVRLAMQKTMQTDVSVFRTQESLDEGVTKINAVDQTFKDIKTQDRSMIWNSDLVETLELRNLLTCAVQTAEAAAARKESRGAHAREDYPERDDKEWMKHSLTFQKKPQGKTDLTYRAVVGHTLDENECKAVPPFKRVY
Protocol: Mitochondria were isolated by a method adapted from G.A. White [Biochem. Biophys. Res. Commun. 44: 1212, 1971]. Twenty to thirty grams of Botrytis cinerea isolate Nick were resuspended in 250 mL 0.25M sucrose, 5mM Na4 EDTA, pH 7.0 (+) 0.15% (w/v) bovine serum albumin (BSA) and placed in a Bead Beater chamber (Biospec Products, Bartlesville, Ok.). Zirconium oxide beads (0.5mm) were added to finish filling the chamber. Four 30 second beats separated by 2 minute temperature equilibration periods in the cold were used to break the mycelia. A crude mitochondrial preparation was harvested from the homogenate by differential centrifugation at 4° C. and resuspended in BSA-free sucrose/EDTA media and used for SDH assays.
The succinate dehydrogenase activity was measured at 600 nm in 50 mM potassium phosphate, pH 7.2, 1 mM KCN, 45 μM 2,6-dichlorophenolindophenol (DCPIP) and 17 mM disodium succinate (final volume, 1 mL) with a Perkin-Elmer Lambda 7 ultraviolet-visible spectrophotometer. The test compounds were added as acetone solutions (final concentration of acetone, 1% (v/v)). The mitochondrial preparatons were used to initiate the reaction. All rates were corrected for endogenous activities minus succinate. Semilog plots of percentage inhibition versus test compound concentration were used to determine inhibition expressed as I50 (μM) which is the concentration required to inhibit the rate of DCPIP reduction by 50%. The commercial fungicide carboxin was used as standard throughout.

Botrytis cinerea [2] = assay: Eggplant grey mold; assay type: in vivo; set-up: scale not given here; conditions: inoculated 24 h later, rated after 3-4 days; for Disease Control Rating at 20 ppm: eggplant sprayed with 20 ppm; for Disease Control Rating at 100 ppm: eggplant sprayed with 100 ppm; for Disease Control Rating at 500 ppm: eggplant sprayed with 500 ppm
Protocol: Eggplant seed are planted in 2.25" square pots, six per pot, and maintained in growth chambers set at 23° C., 80% humidity, and 12 h photoperiod. When the plants are at the cotyledon stage (14-18 days afterplanting), the plants are sprayed with 1.5 mL/pot of 500, 100 or 20 ppm 2:3 acetone:water (with 0.5% Tween® 20) formulations of the test compounds.
Twenty-four hours later the plants are inoculated with Botrytis cinerea, approximately 0.5 mL/pot of a 4×10^6 spore/mL suspension. The plantes are incubated at 23° C. and 100% humidity for 3-4 days, at which time disease control ratings are made based on presence and severity of Botrytis lesions.

Rhizoctonia solani = assay: Rice sheath blight; assay type: in vivo; set-up: scale not given here; conditions: inoculated two days later, rated after 7 days, average of five plants; for Disease Control Rating at 0.02 mg/mL: foliage and soil sprayed with 0.02 mg/mL; for Disease Control Rating at 0.1 mg/mL: foliage and soil sprayed with 0.1 mg/mL; for Disease Control Rating at 0.5 mg/mL: foliage and soil sprayed with 0.5 mg/mL
Protocol: Rice plants, 11 to 15 days old, are grown in 7.65 cm^2 pots. Each plant in the treatment groups is treated by spraying both the foliage and the soil surface, each with 2 mL of a water/acetone/Tween®20 formulation containing 0.5, 0.1, or 0.02 mg/mL of Compound A. The pots are placed in flood trays which are filled with water to just below the soil line. Two days later, approximately two grams of Rhizoctonia solani inoculum, cultured on rice grain for four to eight weeks, is applied to the base of the rice plants in each pot. After 7 days in a 25° C. high humidity growth chamber, each plant is evaluated for the level of disease contro as compared to untreated controls by the following scale and the average of five plants per treatment level is calculated.

Row | SMILES | pest or weed control at 50 ppm (Botrytis cinerea [1]) | pest or weed control at 200 ppm (Botrytis cinerea [1]) | IC50 (succinate dehydrogenase) | Disease Control Rating at 20 ppm (Botrytis cinerea [2]) | Disease Control Rating at 100 ppm (Botrytis cinerea [2]) | Disease Control Rating at 500 ppm (Botrytis cinerea [2]) | Disease Control Rating at 0.02 mg/mL (Rhizoctonia solani) | Disease Control Rating at 0.1 mg/mL (Rhizoctonia solani) | Disease Control Rating at 0.5 mg/mL (Rhizoctonia solani)
1 | COc1cccc(NC(=O)c2cn(C)nc2C(F)(F)F)c1C1CCCCCCC1 [Example 37, 1H-pyrazole-4-carboxamide, N-(2-cyclooctyl-3-methoxyphenyl)-1-methyl-3-(trifluoromethyl)-] | 25% | 54% | 0.0048 µM | 0 | 0 | 2 | 3 | 3 | 3
2 | Cn1cc(C(=O)Nc2ccc(F)cc2C2(C)CCCCC2)c(C(F)(F)F)n1 [Example 98, 1H-pyrazole-4-carboxamide, N-[4-fluoro-2-(1-methylcyclohexyl)-phenyl]-1-methyl-3-(trifluoromethyl)-] | 14% | 0% | 0.8 µM | – | – | 0 | – | – | 0
3 | Cn1cc(C(=O)Nc2ccccc2SC2CCCCC2)c(C(F)(F)F)n1 [Example 45, 1H-pyrazole-4-carboxamide, N-[2-(cyclohexylthio)phenyl]-1-methyl-3-(trifluoromethyl)-] | 7% | 12% | 0.092 µM | – | – | 0 | – | – | 0
4 | O=C(Nc1ccccc1C1CCCCC1)c1c[nH]nc1C(F)F [Example 15, 1H-pyrazole-4-carboxamide, N-(2-cyclohexylphenyl)-3-(difluoromethyl)-] | 36% | 89% | 0.014 µM | 2 | 3 | 2 | – | – | 0
5 | Cn1cc(C(=O)Nc2ccccc2OC2(C)CCCC2)c(C(F)(F)F)n1 [Example 36, 1H-pyrazole-4-carboxamide, 1-methyl-N-[2-(1-methylcyclopentyloxy)phenyl]-3-(trifluoromethyl)-] | 14% | 38% | 0.021 µM | – | – | 0 | – | – | 0
6 | CC1CC=C(c2ccccc2NC(=O)c2cn(C)nc2C(F)(F)F)C1 (stereo not drawn) [Example 150, 1H-pyrazole-4-carboxamide, N-[2-(4-methyl-1-cyclopenten-1-yl)phenyl]-1-methyl-3-(trifluoromethyl)-] | 40% | 100% | 0.026 µM | 0 | 0 | 2 | – | – | 3
7 | Cn1cc(C(=O)Nc2ccccc2C2=CCCCCCC2)c(C(F)(F)F)n1 [Example 120, 1H-pyrazole-4-carboxamide, N-[2-(1-cycloocten-1-yl)phenyl]-1-methyl-3-(trifluoromethyl)-] | 60% | 82% | 0.0041 µM | 0 | 0 | 2 | – | – | 3
8 | Cn1nc(C(F)F)c(C(=O)Nc2ccccc2C2CCCCCC2)c1F [Example 115, 1H-pyrazole-4-carboxamide, N-(2-cycloheptylphenyl)-3-(difluoromethyl)-5-fluoro-1-methyl-] | 42% | 95% | 0.0065 µM | 1 | 2 | 3 | 3 | 3 | 3
9 | Cn1cc(C(=O)Nc2ccccc2C2CCCCC2)c(Br)n1 [Example 5, 1H-pyrazole-4-carboxamide, 3-bromo-N-(2-cyclohexylphenyl)-1-methyl-] | 50% | 40% | 0.0066 µM | 1 | 3 | 3 | – | – | 0
10 | Cn1cc(C(=O)Nc2ccccc2C2CCC(C(C)(C)C)CC2)c(C(F)(F)F)n1 (stereo not drawn) [Example 135, 1H-pyrazole-4-carboxamide, N-[2-[4-(1,1-dimethylethyl)cyclohexyl]-phenyl]-1-methyl-3-(trifluoromethyl)-] | 52% | 66% | 0.01 µM | 1 | 1 | 2 | – | – | 3
11 | Cn1cc(C(=O)Nc2ccccc2OC2(C)CCCC2)c(C(F)F)n1 [Example 35, 1H-pyrazole-4-carboxamide, 3-(difluoromethyl)-1-methyl-N-[2-(1-methylcyclopentyloxy)phenyl]-] | 42% | 46% | 0.012 µM | 2 | 3 | 3 | 2 | 3 | 3
12 | CC(=C1CCCC1)c1ccccc1NC(=O)c1cn(C)nc1C(F)(F)F [Example 33, 1H-pyrazole-4-carboxamide, N-[2-(1-cyclopentylideneethyl)phenyl]-1-methyl-3-(trifluoromethyl)-] | 34% | 41% | 0.0014 µM | 1 | 1 | 2 | 1 | 1 | 3
13 | C[C@H]1CCC[C@H](c2ccccc2NC(=O)c2cn(C)nc2C(F)(F)F)C1 (relative stereo) [Example 70, 1H-pyrazole-4-carboxamide, 1-methyl-N-[2-(3-methylcyclohexyl)-phenyl]-3-(trifluoromethyl)-, trans-] | 97% | 96% | 0.012 µM | 1 | 2 | 3 | – | – | 0
14 | CCC1CC=C(c2ccccc2NC(=O)c2cn(C)nc2C(F)F)CC1 (stereo not drawn) [Example 125, 1H-pyrazole-4-carboxamide, 3-(difluoromethyl)-N-[2-(4-ethyl-1-cyclohexen-1-yl)phenyl]-1-methyl-] | 88% | 93% | 0.005 µM | 2 | 1 | 2 | 2 | 2 | 3
